Data taken from PubChem BioAssay AID1963424 (Molecular Pharmacology Branch, DTP, NCI, 2024).

Test system: 327498-153-R-J2-PDC complex spheroid growth, % test/control
Assay: Anticancer human tumor 327498-153-R-J2-PDC patient-derived uterine carcinosarcoma cell line growth inhibition [Asc]
Conditions: for IC50: curve of first compound; for viability, T/C: stronger effect = lower value; active means viability on the fitted dose curve at most 10% of control; inactive means the rest
Experimental: Multicellular complex tumor spheroid response to apoptosis pathway targeting inhibitors Alrizomadlin, Pelcitoclax, and Dasminapant in combination with a variety of drugs and investigational agents in selected tumor cell lines
The MDM2 inhibitor alrizomadlin, the Bcl-2/Bcl-xL inhibitor pelcitoclax, and the IAPs inhibitor dasminapant were evaluated both individually and in combination with standard of care and investigational anticancer small molecules within a complex spheroid model of solid tumors. . Complex spheroids include a stromal component modeled by human endothelial cells (HUVEC) and fibroblasts modeled by human mesenchymal stem cells (MSCs). The concentration ranges selected for each drug and investigational agent were based upon clinically achievable concentrations if the clinical Cmax of the agent was known.
Compounds. The drugs and investigational agents: alrizomadlin (APG-115; NSC831270), pelcitoclax (APG-1252; NSC835773), dasminapant (APG-1387;NSC834197), TAK-243 (NSC785004), copanlisib (NSC809693), olaparib (NSC753686), talazoparib (NSC767125), cobimetinib (NSC 768068), eltanexor (KPT-8602, NSC 794443), abemaciclib (NSC 768073), sotorasib (NSC818433), adagrasib (NSC 831453), MRTX-1133 (NSC 836407), Iadademestat (ORY1001, NSC 806812), and RMC-4630 (NSC839698), were obtained from the NCI Developmental Therapeutics Program Chemical Repository. The FDA-approved anticancer drug set is available from the Developmental Therapeutics Program at https://dtp.cancer.gov/organization/dscb/obtaining/available plates.htm. […] The stock solutions were prepared in dimethyl sulfoxide (DMSO, Sigma-Aldrich, St. Louis, MO, cat. D2650) at 800-fold the tested concentration and stored at -70 degrees C prior to their use. All drugs and investigational agents were tested over a range starting from a high concentration at or near the clinical Cmax and decreasing in half-log increments. If the clinical Cmax for an agent had not been determined, the highest concentration tested was 10 microM.
The patient-derived cancer (PDC) cell lines include five colon adenocarcinomas: 186277-243-T-J2-PDC, 616215-338-R-J1-PDC, 439559-082-T-J2-PDC, 463943-066-T-J2-PDC, and 519858-162-T-J1-PDC; three pancreatic carcinomas: 323965-272-R-J2-PDC, 521955-158-R6-J3-PDC, and 521955-158-R2-J5-PDC; two uterine sarcomas: 327498-152-R-J2-PDC and 993429-296-R-J1-PDC; two rhabdomyosarcomas: 755483-174-R-J1-PDC and 772245-204-R-J1-PDC; two soft tissue sarcomas: 126254-015-R-J1-PDC and 494315-158-R-J1-PDC; two malignant fibrous histiocytomas: 317291-083-R-J1-PDC and 596521-263-R-J1-PDC; two breast carcinomas: 171881-019-R-J1-PDC and 885512-296-R-J2-PDC; and one ovarian carcinoma: 6556581-035-R-J-PDC were obtained from the NCI PDMR, (https://pdmr.cancer.gov). The established cell lines HSSY-2 synovial sarcoma (RRID:CVCL 8719), SYO-1 synovial sarcoma (RRID:CVCL_7146), MPNST malignant peripheral neural sheath tumor were obtained from the Sloan Kettering Institute. The following established cell lines were purchased from the American Type Culture Collection (ATCC, Manassas, VA), Sor the received from the NCI repository:, PANC-1 pancreatic carcinoma (CRL-1469, RRID:CVCL_0480), OVCAR-5 ovarian carcinoma (RRID:CVCL_1628), OVCAR-8 ovarian carcinoma (RRID:CVCL_1629), , MCF-7 breast carcinoma (CRL-12584, RRID:CVCL_0031), MDA-MB-231 breast carcinoma (CRL-12532, RRID:CVCL_0062), NCI-H1876 small cell lung carcinoma (CRL-5902, RRID:CVCL_1503), NCI-H510A small cell lung carcinoma (HTB-184, RRID:CVCL_1565), NCI-H1417 (CRL-5869, RRID:CVCL_1469), and NCI-H196 small cell lung carcinoma (CRL-5823, RRID:CVCL_1509). Dr. Peter Houghton (Greehey Children's Cancer Research Institute, University of Texas Health Science Center, San Antonio, TX) provided Rh-18 rhabdomyosarcoma (RRID:CVCL_1659). Pooled donor human umbilical vein endothelial cells (HUVEC, Lonza, cat. CC-2519) and human mesenchymal stem cells (hMSC, Lonza, cat. PT-2501) were purchased from Lonza (Walkersville, MD).
Cell Culture. […]
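Further: spheroids exposed to compound for 7 days after 3 days of growth.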
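Wherever viability, T/C is given: 100% = DMSO vehicle control wells.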

C=CC(=O)N1CCN(c2nc(=O)n(-c3c(C)ccnc3C(C)C)c3nc(-c4c(O)cccc4F)c(F)cc23)C(C)C1 (stereo not given) + CCN1C(C(=O)NC23CCC(C(=O)O)(CC2)CC3)C(c2cccc(Cl)c2F)C2(C(=O)Nc3cc(Cl)ccc32)C12CCCCC2
inactive: viability, T/C (second compound 0.03 µM, first compound 0.0316 µM) 80.2% | viability, T/C (second compound 0.03 µM, first compound 0.1 µM) 66.8% | viability, T/C (second compound 0.03 µM, first compound 0.316 µM) 61.3% | viability, T/C (second compound 0.03 µM, first compound 1 µM) 61% | viability, T/C (second compound 0.03 µM, first compound 3.16 µM) 60.4% | viability, T/C (second compound 0.03 µM, first compound 10 µM) 47.7% | viability, T/C (second compound 0.0949 µM, first compound 0.0316 µM) 48.1% | viability, T/C (second compound 0.0949 µM, first compound 0.1 µM) 43.3% | viability, T/C (second compound 0.0949 µM, first compound 0.316 µM) 39.1% | viability, T/C (second compound 0.0949 µM, first compound 1 µM) 40.8% | viability, T/C (second compound 0.0949 µM, first compound 3.16 µM) 31% | viability, T/C (second compound 0.0949 µM, first compound 10 µM) 23.5% | viability, T/C (second compound 0.3 µM, first compound 0.0316 µM) 25.8% | viability, T/C (second compound 0.3 µM, first compound 0.1 µM) 22.3% | viability, T/C (second compound 0.3 µM, first compound 0.316 µM) 21.1% | viability, T/C (second compound 0.3 µM, first compound 1 µM) 13.9% | viability, T/C (second compound 0.3 µM, first compound 3.16 µM) 15.8% | viability, T/C (second compound 0.3 µM, first compound 10 µM) 10.9%
< 31.6 nM: IC50 (second compound 0.0949 µM) | IC50 (second compound 0.3 µM) | IC50 (second compound 0.949 µM) | IC50 (second compound 3 µM)
active: viability, T/C (second compound 0.949 µM, first compound 0.0316 µM) 6.85% | viability, T/C (second compound 0.949 µM, first compound 0.1 µM) 10.2% | viability, T/C (second compound 0.949 µM, first compound 0.316 µM) 5.74% | viability, T/C (second compound 0.949 µM, first compound 1 µM) 6.83% | viability, T/C (second compound 0.949 µM, first compound 3.16 µM) 5.12% | viability, T/C (second compound 0.949 µM, first compound 10 µM) 4.58% | viability, T/C (second compound 3 µM, first compound 0.0316 µM) 2.47% | viability, T/C (second compound 3 µM, first compound 0.1 µM) 2.14% | viability, T/C (second compound 3 µM, first compound 0.316 µM) 2.66% | viability, T/C (second compound 3 µM, first compound 1 µM) 2.75% | viability, T/C (second compound 3 µM, first compound 3.16 µM) 3.23% | viability, T/C (second compound 3 µM, first compound 10 µM) 2.77%
> 10000 nM: IC50 (second compound 0.03 µM)
